Reference: ChEMBL document CHEMBL1201862, “PubChem BioAssay data set” (2004)
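Results reflect a 48-hour exposure of cells in 96-well plates to compound at five concentrations. Here, GI50 denotes the concentration required for 50% inhibition of growth.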 Active and inactive are the calls of the source. No stated cut-off is given here; in the data, active = GI50 up to about 1.1 µM and inactive = higher.

Experiments:
Experiment in all cases: NCI tumour cell line growth inhibition, 48 h
786-0 = test system: 786-0
A498 = test system: A498
A549 = test system: A549
ACHN = test system: ACHN
CAKI-1 = test system: CAKI-1
CCRF-CEM = test system: CCRF-CEM
COLO 205 = test system: COLO 205
DLD-1 = test system: DLD-1
DMS-114 = test system: DMS-114
DMS-273 = test system: DMS-273
DU-145 = test system: DU-145
EKVX = test system: EKVX
HCC 2998 = test system: HCC 2998
HCT-116 = test system: HCT-116
HCT-15 = test system: HCT-15
HL-60 = test system: HL-60
HOP-18 = test system: HOP-18
HOP-62 = test system: HOP-62
HOP-92 = test system: HOP-92
HT-29 = test system: HT-29
Hs-578T = test system: Hs-578T
IGROV-1 = test system: IGROV-1
K562 = test system: K562
KM-20L2 = test system: KM-20L2
KM12 = test system: KM12
LOX IMVI = test system: LOX IMVI
LXFL 529 = test system: LXFL 529
M14 = test system: M14
M19-MEL = test system: M19-MEL
MCF7 = test system: MCF7
MDA-MB-231 = test system: MDA-MB-231
MDA-MB-435 = test system: MDA-MB-435
MDA-N = test system: MDA-N
MOLT-4 = test system: MOLT-4
Malme-3M = test system: Malme-3M
NCI-H226 = test system: NCI-H226
NCI-H23 = test system: NCI-H23
NCI-H460 = test system: NCI-H460
NCI-H522 = test system: NCI-H522
NCI/ADR-RES = test system: NCI/ADR-RES
OVCAR-3 = test system: OVCAR-3
OVCAR-4 = test system: OVCAR-4
OVCAR-5 = test system: OVCAR-5
OVCAR-8 = test system: OVCAR-8
PC-3 = test system: PC-3
RPMI-8226 = test system: RPMI-8226
RXF 393 = test system: RXF 393
SF-268 = test system: SF-268
SF-295 = test system: SF-295
SF-539 = test system: SF-539
SK-MEL-28 = test system: SK-MEL-28
SK-MEL-2 = test system: SK-MEL-2
SK-MEL-5 = test system: SK-MEL-5
SK-OV-3 = test system: SK-OV-3
SN12C = test system: SN12C
SNB-19 = test system: SNB-19
SNB-75 = test system: SNB-75
SNB-78 = test system: SNB-78
SR = test system: SR
SW-620 = test system: SW-620
T47D = test system: T47D
TK-10 = test system: TK-10
U-251 = test system: U-251
UACC-257 = test system: UACC-257
UACC-62 = test system: UACC-62
UO-31 = test system: UO-31
XF498 = test system: XF498
RXF 631 = test system: RXF 631

CCC(C)C(=O)O[C@H]1C(=O)O[C@@H]2C[C@H]3C(C)=CC(=O)[C@@H](O)[C@]3(C)[C@H]3[C@@H](O)[C@H](O)[C@@]4(C)OC[C@]32[C@@H]14 (stereo not given in full) was tested, and the GI50 (786-0) was < 19.4 nM (active), the GI50 (A498) was < 0.01 µM (active) and the GI50 (A549) was 0.141 µM (active). For the same compound, the GI50 (ACHN) was < 0.0156 µM (active), the GI50 (CAKI-1) was < 0.0455 µM (active) and the GI50 (CCRF-CEM) was 14.3 nM (active). The GI50 (COLO 205) was 0.0229 µM (active), the GI50 (DLD-1) was 0.0293 µM (active) and the GI50 (DMS-114) was 0.0152 µM (active). For the same compound, the GI50 (DMS-273) was 0.019 µM (active), the GI50 (DU-145) was < 10 nM (active) and the GI50 (EKVX) was 0.121 µM (active). The GI50 (HCC 2998) was < 0.0147 µM (active), the GI50 (HCT-116) was < 0.01 µM (active) and the GI50 (HCT-15) was < 0.0204 µM. For the same compound, the GI50 (HL-60) was 0.014 µM (active), the GI50 (HOP-18) was 0.158 µM (active) and the GI50 (HOP-62) was < 0.0221 µM (active). For the same compound, the GI50 (HOP-92) was < 23.7 nM (active), the GI50 (HT-29) was < 0.0146 µM (active) and the GI50 (Hs-578T) was < 10 nM (active). For the same compound, the GI50 (IGROV-1) was < 0.0191 µM (active), the GI50 (K562) was 10.9 nM (active) and the GI50 (KM-20L2) was 0.0468 µM (active). The GI50 (KM12) was < 16.1 nM (active), the GI50 (LOX IMVI) was < 0.0129 µM (active) and the GI50 (LXFL 529) was 10.3 nM (active). The GI50 (M14) was < 0.0144 µM (active), the GI50 (M19-MEL) was 0.0269 µM (active) and the GI50 (MCF7) was < 10 nM (active). For the same compound, the GI50 (MDA-MB-231) was < 10 nM (active), the GI50 (MDA-MB-435) was < 10 nM (active) and the GI50 (MDA-N) was < 10 nM (active). For the same compound, the GI50 (MOLT-4) was 0.0112 µM (active), the GI50 (Malme-3M) was < 0.0152 µM (active) and the GI50 (NCI-H226) was < 0.0157 µM (active). The GI50 (NCI-H23) was < 0.01 µM (active), the GI50 (NCI-H460) was < 0.0135 µM (active) and the GI50 (NCI-H522) was 0.0147 µM (active). For the same compound, the GI50 (NCI/ADR-RES) was < 33.4 nM (active), the GI50 (OVCAR-3) was 16.9 nM (active) and the GI50 (OVCAR-4) was < 10 nM (active). For the same compound, the GI50 (OVCAR-5) was < 0.0244 µM (active), the GI50 (OVCAR-8) was < 15.5 nM (active) and the GI50 (PC-3) was < 10 nM (active). The GI50 (RPMI-8226) was < 0.016 µM (active), the GI50 (RXF 393) was 15 nM (active) and the GI50 (SF-268) was < 0.0164 µM (active). For the same compound, the GI50 (SF-295) was < 0.0205 µM (active), the GI50 (SF-539) was < 17.6 nM (active) and the GI50 (SK-MEL-28) was < 0.01 µM (active). The GI50 (SK-MEL-2) was < 0.0252 µM (active), the GI50 (SK-MEL-5) was < 0.0169 µM (active) and the GI50 (SK-OV-3) was 0.0832 µM (active). For the same compound, the GI50 (SN12C) was < 0.01 µM (active), the GI50 (SNB-19) was < 14.3 nM (active) and the GI50 (SNB-75) was < 16.7 nM (active). The GI50 (SNB-78) was 0.0323 µM (active), the GI50 (SR) was 0.01 µM (active) and the GI50 (SW-620) was < 0.0162 µM (active). The GI50 (T47D) was < 10 nM (active), the GI50 (TK-10) was < 0.0198 µM (active) and the GI50 (U-251) was < 0.0171 µM (active). For the same compound, the GI50 (UACC-257) was < 0.01 µM (active), the GI50 (UACC-62) was < 0.019 µM (active) and the GI50 (UO-31) was < 0.0217 µM (active). The GI50 (XF498) was 20.8 nM (active).

CCOC(=O)C(C)(NC(=O)c1ccc(NCc2ccc3nc(NC(=O)c4ccccc4)nc(NC(=O)c4ccccc4)c3c2)cc1)C(=O)OCC was tested, and the GI50 (786-0) was 3190 nM (inactive), the GI50 (A498) was 9.35 µM (inactive) and the GI50 (A549) was 12.2 µM (inactive). For the same compound, the GI50 (ACHN) was 8.17 µM (inactive), the GI50 (CAKI-1) was 8.02 µM (inactive) and the GI50 (COLO 205) was 40.4 µM (inactive). For the same compound, the GI50 (DLD-1) was 15.6 µM (inactive), the GI50 (DMS-114) was 16.8 µM (inactive) and the GI50 (DMS-273) was 9.23 µM (inactive). For the same compound, the GI50 (EKVX) was 19 µM (inactive), the GI50 (HCC 2998) was 25.8 µM (inactive) and the GI50 (HCT-116) was 6.97 µM (inactive). The GI50 (HCT-15) was 24.4 µM, the GI50 (HL-60) was > 100 µM (inactive) and the GI50 (HOP-18) was 37.8 µM (inactive). The GI50 (HOP-62) was 16.6 µM (inactive), the GI50 (HOP-92) was 5620 nM (inactive) and the GI50 (HT-29) was 13.3 µM (inactive). The GI50 (IGROV-1) was 19.9 µM (inactive), the GI50 (KM-20L2) was 18.4 µM (inactive) and the GI50 (LOX IMVI) was 13.6 µM (inactive). For the same compound, the GI50 (M14) was 13 µM (inactive), the GI50 (M19-MEL) was 8.93 µM (inactive) and the GI50 (MOLT-4) was 26.6 µM (inactive). The GI50 (Malme-3M) was 15 µM (inactive), the GI50 (NCI-H226) was 10.1 µM (inactive) and the GI50 (NCI-H23) was 9.86 µM (inactive). For the same compound, the GI50 (NCI-H460) was 14.5 µM (inactive), the GI50 (NCI-H522) was 13.4 µM (inactive) and the GI50 (OVCAR-3) was 5640 nM (inactive). For the same compound, the GI50 (OVCAR-4) was 2090 nM (inactive), the GI50 (OVCAR-5) was > 100 µM (inactive) and the GI50 (OVCAR-8) was 4680 nM (inactive). The GI50 (RPMI-8226) was 18.3 µM (inactive), the GI50 (RXF 393) was 2390 nM (inactive) and the GI50 (RXF 631) was 12.2 µM (inactive). The GI50 (SF-268) was 8.99 µM (inactive), the GI50 (SF-295) was 6.79 µM (inactive) and the GI50 (SF-539) was 3510 nM (inactive). For the same compound, the GI50 (SK-MEL-28) was 8.18 µM (inactive), the GI50 (SK-MEL-2) was 14.1 µM (inactive) and the GI50 (SK-MEL-5) was 7.28 µM (inactive). For the same compound, the GI50 (SK-OV-3) was 12.5 µM (inactive), the GI50 (SN12C) was 11.4 µM (inactive) and the GI50 (SNB-75) was 3400 nM (inactive). The GI50 (SNB-78) was 9.23 µM (inactive), the GI50 (SR) was 34.9 µM (inactive) and the GI50 (SW-620) was 11.7 µM (inactive). The GI50 (TK-10) was 19.9 µM (inactive), the GI50 (U-251) was 7.11 µM (inactive) and the GI50 (UACC-257) was 13.5 µM (inactive). For the same compound, the GI50 (UACC-62) was 8.49 µM (inactive) and the GI50 (UO-31) was 18.1 µM (inactive).
